One may read the mortality as the percentage killed. Broadly, the IC50 is the concentration needed to halve the response being measured.

Experimental findings from ChEMBL document CHEMBL4840355, “Antitumor and toxicity study of mitochondria-targeted triptolide derivatives using triphenylphosphine (TPP+) as a carrier” (Bioorg Med Chem, 2021) are described below.

Series [1] is described as follows: Toxicity in 12-month old zebrafish assessed as mortality at 1.6 uM. Also on record: species or system Danio rerio. The following applies: in vivo.
Series [2] concerns HepG2. The series is described as follows: Antitumor activity against human HepG2 cells xenografted in zebra fish AB assessed as tumor growth inhibition at 1 uM measured after 48 hrs by fluorescence microscopic analysis. Type of series: functional, cell-based.
Series [3] in a line: Toxicity in zebrafish AB assessed as pericardial edema at 1 uM. Also on record: species or system Danio rerio. The settings on record: in vivo.
The test system of a further series is MCF7. The series is described as follows: Cytotoxicity against human MCF7 cells assessed as inhibition of cell proliferation measured after 48 hrs by MTT assay. Type of series: functional, cell-based. The settings on record: MCF7, 48 h.
The test system of another series is PC-3. The series is described as follows: Cytotoxicity against human PC-3 cells assessed as inhibition of cell proliferation measured after 48 hrs by MTT assay. Type of series: functional, cell-based. The following applies: PC-3, 48 h.
Another series deals with PANC-1. The series is described as follows: Cytotoxicity against human PANC-1 cells assessed as inhibition of cell proliferation measured after 48 hrs by MTT assay. The settings on record: PANC-1, 48 h. Type of series: functional, cell-based. For orientation: Formazan colour is commonly taken as a measure of viable cells.
Series [4] relates to HepG2. The series is described as follows: Antitumor activity against human HepG2 cells xenografted in zebra fish AB assessed as tumor growth inhibition at 0.5 to 1 uM measured after 48 hrs by fluorescence microscopic analysis. The settings on record: dose 0.5-1 µM. Format: functional, cell-based.
Series [5] in a line: Toxicity in zebrafish AB assessed as decrease in body length at 0.25 to 2 uM measured at 72 hrs postfertilization. The arrangement: species or system Danio rerio. The settings on record: in vivo, dose 0.25-2 µM.
The nature of series [6]: Cytotoxicity against human HBE cells assessed as inhibition of cell proliferation measured after 48 hrs by MTT assay. Format: cell-based.
Series [7] in a line: Toxicity in zebrafish AB assessed as mortality at 0.05 to 2 uM measured at 72 hrs postfertilization. The settings on record: in vivo, dose 0.05-2 µM. The arrangement: species or system Danio rerio.
A short description of series [8]: Cytotoxicity against human A549/DDP cells assessed as inhibition of cell proliferation measured after 48 hrs by MTT assay. Type of series: functional, cell-based.
A short description of series [9]: Toxicity in zebrafish AB assessed as decrease in hatching rate at 0.25 to 2 uM measured at 72 hrs postfertilization. The arrangement: species or system Danio rerio. The settings on record: in vivo, dose 0.25-2 µM.
Series [10] can be described thus: Hepatotoxicity in transgenic zebrafish Tg(1-fabp:EGFP) assessed as liver damage by measuring decrease in fluorescence intensity and area at 0.5 uM measured after 96 hrs. Format: toxicity, tissue-based, Danio rerio. The following applies: in vivo.
A further series concerns HeLa. Nature of the series: Cytotoxicity against human HeLa cells assessed as inhibition of cell proliferation measured after 48 hrs by MTT assay. Type of series: functional, cell-based.
For a further series, the system named is NCI-H1975. Nature of the series: Cytotoxicity against human NCI-H1975 cells assessed as inhibition of cell proliferation measured after 48 hrs by MTT assay. Format: functional, cell-based. The settings on record: NCI-H1975, 48 h.
The nature of series [11]: Toxicity in zebrafish AB assessed as increase in embryo malformation rate at 0.5 to 2 uM measured at 72 hrs postfertilization. The arrangement: species or system Danio rerio. The following applies: in vivo, dose 0.5-2 µM.
The subject of series [12] is HepG2. The series is described as follows: Cytotoxicity against human HepG2 cells assessed as inhibition of cell proliferation measured after 48 hrs by MTT assay. Type of series: functional, cell-based. The settings on record: HepG2, 48 h.
The next series deals with NCI-H1299. The series is described as follows: Cytotoxicity against human NCI-H1299 cells assessed as inhibition of cell proliferation measured after 48 hrs by MTT assay. Format: functional, cell-based. The settings on record: NCI-H1299, 48 h.
Another series deals with L02. Nature of the series: Cytotoxicity against human HL7702 cells assessed as inhibition of cell proliferation measured after 48 hrs by MTT assay. The following applies: L02, 48 h. Format: cell-based.

Active and inactive are the calls of the source. The rule behind the calls is not given here.

For the compound `CC(C)[C@]12O[C@H]1[C@@H]1O[C@]13[C@]1(O[C@H]1C[C@H]1C4=C(CC[C@@]13C)C(=O)OC4)[C@@H]2O` [TRIPTOLIDE], the mortality at 1.6 µM in [1] was found to be 100%. Also, the result with HepG2 [2] and in the series with HepG2 [4] was Active. The Activity entry in [3] is “Toxic”; in [5], “Toxic”; in series [7], “Non-Toxic”; in series [9], “Toxic”; in series [10] it was “Toxic”; in [11], “Toxic”. Also, the IC50 in the series on MCF7 is 22 nM; in the series with PC-3 it was 21 nM; with PANC-1, 56 nM; in series [6] it was 30 nM; in series [8] it was above 10000 nM; in the series on HeLa it was 43 nM. Besides, the concentration for half-maximal inhibition (IC50) in the series on NCI-H1975 worked out at 19 nM; in the series on HepG2 [12], 33 nM; in the series on NCI-H1299 it was 49 nM; in the series with L02, 21 nM.
